Drawing on ChEMBL document CHEMBL1133027, “Novel inhibitors of HIV protease: design, synthesis and biological evaluation of picomolar inhibitors containing cyclic P1/P2 scaffolds” (Bioorg Med Chem Lett, 2000), this text covers Ki and IC50 for 13 compounds.

As usually defined, the Ki is a dissociation constant, usually derived from enzyme kinetics or from competition with a known ligand. Read a high Ki as lower affinity. By IC50 is commonly meant the midpoint of a concentration-inhibition curve. A lower IC50 goes with higher potency.

Assay [1] has as its target Human immunodeficiency virus type 1 protease (Human immunodeficiency virus 1, UniProt Q72874). Put plainly: Inhibition of HIV protease.
Assay [2] deals with MT4. Put plainly: Compound was evaluated for its antiviral inhibition in MT-4 cell culture. The assay is classed as functional, cell-based. The note with it: Homo sapiens.

`O=C(N[C@H]1c2ccccc2C[C@H]1O)[C@H](Cc1ccccc1)C[C@H](O)CN1C(=O)[C@H](Cc2ccccc2)C[C@@H]1Cc1ccccc1` returned a Ki in assay [1] of over 0.5 nM.

In turn, `CC(C)CN(C[C@@H](O)[C@H](Cc1ccccc1)NC(=O)O[C@H]1CCOC1)S(=O)(=O)c1ccc(N)cc1` yielded an IC50 in assay [2] of 100 nM. Still for that read-out and setting: to `Cc1c(O)cccc1C(=O)N[C@@H](CSc1ccccc1)[C@H](O)CN1C[C@H]2CCCC[C@H]2C[C@H]1C(=O)NC(C)(C)C` belongs 50 nM. In the case of `O=C(N[C@H]1c2ccccc2C[C@H]1O)[C@H](Cc1ccccc1)C[C@H](O)CN1C(=O)CC[C@@H]1Cc1ccccc1`, the affinity in assay [1], expressed as Ki, was 330 nM. Also, in assay [2], the IC50 is over 50000 nM. On to `O=C(N[C@H]1c2ccccc2C[C@H]1O)[C@H](Cc1ccccc1)C[C@@H](O)CN1C(=O)CC[C@@H]1Cc1ccccc1`, for which the IC50 in assay [2] was over 50000 nM. Regarding `CC(C)(C)NC(=O)[C@@H]1CN(Cc2cccnc2)CCN1C[C@@H](O)C[C@@H](Cc1ccccc1)C(=O)N[C@H]1c2ccccc2C[C@H]1O`, in assay [2], the IC50 amounted to 40 nM. For `O=C(N[C@H]1c2ccccc2C[C@H]1O)[C@H](Cc1ccccc1)C[C@H](O)CN1C(=O)[C@@H](Cc2ccccc2)C[C@@H]1Cc1ccccc1`, the Ki in assay [1] is 0.05 nM. In assay [2], this compound displayed an IC50 of 300 nM. In assay [2], `CC(C)(C)NC(=O)[C@@H]1C[C@@H]2CCCC[C@@H]2CN1C[C@@H](O)[C@H](Cc1ccccc1)NC(=O)[C@H](CC(N)=O)NC(=O)c1ccc2ccccc2n1` came in with an IC50 of 20 nM. As for `O=C(N[C@H]1c2ccccc2C[C@H]1O)[C@H](Cc1ccccc1)C[C@H](O)CN1[C@@H](Cc2ccccc2)C[C@H](Cc2ccccc2)S1(=O)=O`, in assay [1], affinity was put at a Ki of 16 nM. Regarding `O=C1N[C@H](Cc2ccccc2)C(=O)[C@H]1Cc1ccccc1`, the affinity in assay [1] corresponds to a Ki of 0.05 nM. Also, in assay [2], it took 300 nM to reach half-maximal inhibition (IC50). `CC(C)c1nc(CN(C)C(=O)N[C@H](C(=O)N[C@@H](Cc2ccccc2)C[C@H](O)[C@H](Cc2ccccc2)NC(=O)OCc2cncs2)C(C)C)cs1` [RITONAVIR] came in with an IC50 in assay [2] of 210 nM.

In turn, `O=C(N[C@H]1c2ccccc2C[C@H]1O)[C@H](Cc1ccccc1)C[C@H](O)CN1[C@@H](Cc2ccccc2)CN(Cc2ccccc2)S1(=O)=O` displayed a Ki in assay [1] of 0.8 nM. In addition, the midpoint of inhibition in assay [2], the IC50, lay at 1500 nM.

As to `O=C(N[C@H]1c2ccccc2C[C@H]1O)[C@H](Cc1ccccc1)C[C@H](O)CN1C(=O)N(Cc2ccccc2)C[C@@H]1Cc1ccccc1`, the Ki in assay [1] came out at 1.2 nM. The compound also gave an IC50 in assay [2] of 300 nM.
